# Data published in US5047242A, “Azadirachtin derivative insecticides” (Native Plant Institute ("NPI"), priority 1987, dated 1991).
# Like-named read-outs stand apart in the source and are kept apart here.
# System: Heliothis virescens
# Test: Artificial diet feeding bioassay, mortality and growth inhibition in first-instar larvae
# Assay type: in vivo, Heliothis virescens (tobacco budworm)
# Settings: for LC50: Heliothis virescens, po; for EC50 (concentration causing 50% growth inhibition): Table 1, first-instar Heliothis virescens larvae, parentheses = 95% confidence limits; for EC50 (concentration causing 50% growth inhibition) / EC50: artificial diet; for insecticidal activity (in words): Heliothis virescens feeding; for EC50: Table 5, larval growth reduced to 50% of control, first instar Heliothis virescens, 95% confidence limits
# From the text: The results of the growth inhibitory and lethal activities of azadirachtin and these 8 derivatives when fed in an artificial diet to Heliothis virescens larvae are shown in Table 1. Similar to the results of Morgan, E. D., in "Natural pesticides from the Neem tree (Azadirachta indica A. Juss), Schmutterer, H., et al., Eds., Proc. First International Neem Conference (Rottach-Egern, 1980), German Agency for Technical Corporation,Eschborn, Germany, 1982, pps. 43-52 (hereinafter "Morgan"), neither deacetylation nor hydrogenation of the carbon-carbon double bond of the dihydrofuran ring moiety of azadirachtin had any significant effect on activity of the compound against H. virescens.
# Mortality and growth inhibition in first-instar Heliothis
# virescens larvae fed azadirachtin and eight derivatives in an
# artificial diet (I. Kubo and J. A. Klocke, In: Plant Resistance to
# Insects (P. A. Helin, Ed.), ACS Symposium Series 208, American Chemical
# Society, Washington, D.C. (1983), pp. 329-346.).^a
# ^b LC50 values are the concentrations (ppm) causing 50%
# ^c EC50 values are the concentrations (ppm) causing 50% growth
# ^d Numbers in parentheses are the 95% confidence limits determined
# using the methods of Litchfield and Wilcoxon, J. Pharmacol. Exp. Ther.
# An artificial diet feeding bioassay with neonate larvae of tobacco budworm (Heliothis virescens) and fall armyworm (Spodoptera frugiperda) was used as previously described (Kubo and Klocke, 1983) to detect insecticidal activities in the plant extracts to monitor fractionation, and to determine the potency of the isolated constituents and derivatives. Potency was determined either as the effective concentration (EC50) of added material that is necessary to reduce larval growth to 50% of the control values or as the lethal concentration (LC50) of added material that is necessary to kill 50% of the treated larvae. EC50 and LC50 values were determined from log probit paper and analyzed statistically by the method of Litchfield and Wilcoxon, supra.
# [1] = read-out: LC50 (concentration causing 50% mortality)
SMILES,LC50 [1],EC50 (concentration causing 50% growth inhibition),insecticidal activity (in words),LC50,EC50
C/C=C(\C)C(=O)OC1CC(OC(C)=O)C2(C(=O)OC)COC3C2C12COC(OC(C)=O)(C(=O)OC)C2C(C)(C12OC1(C)C1CC2OC2OC=CC21O)C3O (stereo not shown) [11-O-acetylazadirachtin],0.95 µg/mL,0.18 (0.08-0.40) ppm,,,
C/C=C(\C)C(=O)OC1CC(OC(C)=O)C2(C(=O)OC)COC3C2C12COC(OC)(C(=O)OC)C2C(C)(C12OC1(C)C1CC2OC2OC=CC21O)C3O (stereo not shown) [11-O-methylazadirachtin],25 µg/mL,5.00 (1.54-16.25) ppm,,,
"CC(=O)C1C2(CO)C(OC(=O)/C=C/c3ccccc3)CC(O)C3(C)COC(C32)C(O)C1(C)C12OC1(C)C1CC2OC2OC=CC21O (stereo not shown) [Compound 10, 1-cinnamoylmelianolone]",,,approximately half that of azadirachtin,1.5 µg/mL,0.12 ppm
"CC(=O)OC1CC(OC(=O)/C=C/c2ccccc2)C2(CO)C3C(OCC13C)C(O)C(C)(C13OC1(C)C1CC3OC3OC=CC31O)C2C(C)=O (stereo not shown) [Compound 12, 1-cinnamoyl-3-0-acetylmelianolone]",,,approximately half that of azadirachtin,1.5 µg/mL,0.15 ppm
"CC(=O)OCC12C(OC(=O)/C=C/c3ccccc3)CC(OC(C)=O)C3(C)COC(C31)C(O)C(C)(C13OC1(C)C1CC3OC3OC=CC31O)C2C(C)=O (stereo not shown) [Compound 13, 1-cinnamoyl-3,19-0,0-diacetylmelianolone]",,,approximately half that of azadirachtin,1.5 µg/mL,0.12 ppm
"CC(=O)C1C2(CO)C(O)CC(O)C3(C)COC(C32)C(O)C1(C)C12OC1(C)C1CC2OC2OC=CC21O (stereo not shown) [Compound 14, decinnamoylmelianolone]",,,did not show good activity,10 µg/mL,3.20 ppm
